Like-named read-outs stand apart in the source and are kept apart here.
Experiments:
Type in all cases: physicochemical
[1] = Approximate solubilities (solvent added until a solution forms)
Text: Approximate solubilities of compound 1, Form A in aqueous mixtures containing high concentrations of organic solvents are given in Table 1. [table]

[2] = RH stability: storage at controlled relative humidity or drying, checked by XRPD and for deliquescence
Text: Form A samples were stored at lower relative humidities of approximately 9-11, 23 and 32% RH and analyzed by XRPD and Karl-Fischer titration analysis after four weeks (Tables 30 and 31). The samples appeared to be Form A by XRPD. […] Note that the water content in the samples at 23 and 32% RH was slightly higher compared to the initial batch of Form A.
Form X samples were stored at relative humidities of approximately 43, 75 and 90% RH and analyzed by XRPD and Karl-Fischer titration analysis after five weeks (Tables 34 and 35).

[3] = Coulometric Karl Fischer titration for water determination
Procedure: Coulometric Karl Fischer (KF) analysis for water determination was performed using a Mettler Toledo DL39 Karl Fischer titrator. Samples were placed in the KF titration vessel containing approximately Hydranal—Coulomat AD and mixed for 60 seconds to ensure dissolution. The sample was then titrated by means of a generator electrode which produces iodine by electrochemical oxidation: 2I−=>I2+2e. Three replicates were obtained to ensure reproducibility. A NIST-traceable water standard (Hydranal Water Standard 10.0) was analyzed to check the operation of the coulometer. Data were collected and analyzed using LabX Pro Titration v2.10.000.

[4] = RH stability: storage at controlled relative humidity or drying, checked by XRPD and for deliquescence; remark: listed apart in the source

In the case of `Cl.NCCc1c[nH]c(=S)n1[C@H]1COc2c(F)cc(F)cc2C1` [Amorphous, (R)-5-(2-Aminoethyl)-1-(6,8-difluorochroman-3-yl)-1,3-dihydroimidazole-2-thione hydrochloride], the solubility ([1]; 2,2,2-trifluoroethanol, 50 °C, organic solvent or mixture, 2,2,2-trifluoroethanol, 50° C., read-out: Solubility (approximate) at elevated temperature) is reported as 8 mg/mL, the “Solubility (approximate)” value ([1]; 2,2,2-trifluoroethanol, hydrochloride) is reported as 8 mg/mL and the “Solubility (approximate)” value ([1]; acetone, hydrochloride) is reported as 49 mg/mL. The “Solubility (approximate)” value ([1]; acetonitrile) was less than 1 mg/mL, the “Solubility compared with the other forms (in words)” value ([1]; comparison between forms, listed as Amorphous material, hydrochloride) was “higher solubilities in most organic solvents and water compared to Forms A, B, and C” and the solubility ([1]; ethanol, 53 °C, organic solvent or mixture, ethanol, 53° C., read-out: Solubility (approximate) at elevated temperature) was 11 mg/mL. For the same compound, the “Solubility (approximate)” value ([1]; ethanol, hydrochloride) was 10 mg/mL, the “Solubility (approximate)” value ([1]; ethyl acetate) was less than 1 mg/mL and the “Solubility (approximate)” value ([1]; iso-propanol, hydrochloride) was 16 mg/mL. For the same compound, the “Solubility (approximate)” value ([1]; methanol, hydrochloride) was 50 mg/mL, the “Solubility (approximate)” value ([1]; methyl ethyl ketone, hydrochloride) was 64 mg/mL and the solubility ([1]; methyl iso-butyl ketone, organic solvent or mixture, methyl iso-butyl ketone, read-out: Solubility (approximate)) was less than 1 mg/mL. The “Solubility (approximate)” value ([1]; tetrahydrofuran (THF), hydrochloride) was 100 mg/mL and the “Solubility (approximate)” value ([1]; water, hydrochloride) was 36 mg/mL.
For `Cl.NCCc1c[nH]c(=S)n1[C@H]1COc2c(F)cc(F)cc2C1` [Form A, (R)-5-(2-Aminoethyl)-1-(6,8-difluorochroman-3-yl)-1,3-dihydroimidazole-2-thione hydrochloride], the solubility ([1]; 1,4-dioxane:water 99:1, organic solvent or mixture, 1,4-dioxane:water 99:1, read-out: Solubility (approximate)) was less than 24 mg/mL, the solubility ([1]; acetone:water 90:10, organic solvent or mixture, acetone:water 90:10 (9:1), read-out: Solubility (approximate)) was greater than 23 mg/mL and the “Solubility (approximate)” value ([1]; acetone:water 99:1, hydrochloride) was 1 mg/mL. For the same compound, the solubility ([1]; acetonitrile:water 90:10, organic solvent or mixture, acetonitrile:water 90:10 (9:1), read-out: Solubility (approximate)) was greater than 23 mg/mL, the solubility ([1]; acetonitrile:water 95:5, organic solvent or mixture, acetonitrile:water 95:5, read-out: Solubility (approximate)) was less than 23 mg/mL and the solubility ([1]; ethanol:water 90:10, organic solvent or mixture, ethanol:water 90:10 (9:1), read-out: Solubility (approximate)) was greater than 21 mg/mL. The solubility ([1]; ethanol:water 99:1, organic solvent or mixture, ethanol:water 99:1, read-out: Solubility (approximate)) was less than 25 mg/mL, the Observations ([2]; ~23% RH, 4 weeks) was “looks dry” and the Observations ([2]; ~32% RH, 4 weeks) was “looks dry”. The “% water” value ([3]; ~9-11% RH, 11 days) was 1.70%, the Moles of water ([3]; ~9-11% RH, 11 days) was 0.33 mol and the “% water” value ([3]; ~23% RH, 4 weeks) was 2.96%. The Moles of water ([3]; ~23% RH, 4 weeks) was 0.59 mol, the “% water” value ([3]; ~32% RH, 4 weeks) was 3.24% and the Moles of water ([3]; ~32% RH, 4 weeks) was 0.65 mol. The “Stability at relative humidity” value ([4]; 31% relative humidity, after two weeks) was “stable”, the “Stability at relative humidity” value ([4]; 43% relative humidity, after five days) was “stable” and the “Form conversion under high laboratory humidity” value ([4]; typically 43% to 90% relative humidity, within 1 day to 2 weeks) was “converts to Form B”.
With `Cl.NCCc1c[nH]c(=S)n1[C@H]1COc2c(F)cc(F)cc2C1` [Form X, (R)-5-(2-Aminoethyl)-1-(6,8-difluorochroman-3-yl)-1,3-dihydroimidazole-2-thione hydrochloride] the Observations ([2]; 90% RH, 5 weeks (Table 34)) was “looks dry”, the “Form conversion at high relative humidity” value ([2]; 90% RH, after 4 days and 5 weeks) was “converted to Form B” and the “% water” value ([3]; 43% RH, 5 weeks) was 5.52%. The Moles of water ([3]; 43% RH, 5 weeks) was 1.13 mol, the “% water” value ([3]; 75% RH, 5 weeks) was 8.74% and the Moles of water ([3]; 75% RH, 5 weeks) was 1.85 mol. The “% water” value ([3]; 90% RH, 5 weeks) was 6.47%, the Moles of water ([3]; 90% RH, 5 weeks) was 1.34 mol and the Observations ([4]; 43% RH, 5 weeks (Table 34)) was “looks dry”. The Observations ([4]; 75% RH, 5 weeks (Table 34)) was “looks dry”, the “Change by XRPD on drying” value ([4]; after 6 days and 2 weeks of drying at approximately 70° C.) was “did not change” and the Observations ([4]; ~43% RH, 5 weeks (Table 35)) was “looks dry”. The Observations ([4]; ~43% RH, 7 days) was “looks dry”, the “Weight change” value ([4]; ~43% RH, 7 days) was 1.2 mg and the “Weight change, %” value ([4]; ~43% RH, 7 days) was 3.4%. The Observations ([4]; ~75% RH, 5 weeks (Table 35)) was “looks dry”, the Observations ([4]; ~75% RH, 7 days) was “looks dry” and the “Weight change” value ([4]; ~75% RH, 7 days) was 2.4 mg. For the same compound, the “Weight change, %” value ([4]; ~75% RH, 7 days) was 6.0%, the Observations ([4]; ~90% RH, 5 weeks (Table 35)) was “looks dry” and the “Weight change” value ([4]; ~90% RH, 1 day) was 2.3 mg. The “Weight change, %” value ([4]; ~90% RH, 1 day) was 5.6%, the Observations ([4]; ~90% RH, 7 days) was “looks dry” and the “Weight change” value ([4]; ~90% RH, 7 days) was 0.9 mg. For the same compound, the “Weight change, %” value ([4]; ~90% RH, 7 days) was 2.1%.
